In patent US20170326188A1, “USES OF PORIA COCOS EPIDERMIS EXTRACT, PORICOIC ACID A, AND PORICOIC ACID B IN REGULATING BLOOD GLUCOSE LEVEL” (SINPHAR PHARMACEUTICAL CO., LTD., priority 2016, published 2017):

Experiments:
mouse myocytes (C2C12) = test: Glucose oxidase assay of glucose uptake capability of myocytes; format: cell-based; conditions: C2C12 cells, 0.1, 1 or 10 μg/ml, 2 hours; for relative glucose uptake capability of cells (glucose consumption) compared to the control group: BSA-DMEM medium containing 500 μg/ml glucose
Experimental: The differentiated mouse myocytes (C2C12, purchased from ATCC) and adipocytes (3T3-L1, purchased from ATCC) were cultivated in a Dulbecco's modified Eagle's medium (DMEM) containing 2% bovine serum albumin (BSA) but serum free for 16 hours respectively. Then, the cells were washed with Dulbecco's phosphate-buffered saline (D-PBS), and medium was replaced with a 0.2% BSA-DMEM medium containing 500 μg/ml glucose. The cells thus provided were used in the following experiments. C2C12 cells provided by [Preparation Examples] were divided into 5 groups and were respectively cultivated with the following mediums for 2 hours: • 1. Group I: a BSA-DMEM medium containing 500 μg/ml glucose. • 2. Group II: a BSA-DMEM medium containing 500 μg/ml glucose and 100 nM insulin. • 3. Group III: a BSA-DMEM medium containing 500 μg/ml glucose and 0.1 μg/ml Poria cocos epidermis extract provided by [Preparation Example A-2]. • 4. Group IV: a BSA-DMEM medium containing 500 μg/ml glucose and 1 μg/ml Poria cocos epidermis extract provided by [Preparation Example A-2]. • 5. Group V: a BSA-DMEM medium containing 500 μg/ml glucose and 10 μg/ml Poria cocos epidermis extract provided by [Preparation Example A-2]. Thereafter, the content of glucose in the medium of each group was determined by a glucose oxidase assay to measure the level of glucose consumption (representing the glucose uptake capability of cells) of each group. Finally, the results of the control group (i.e., cells being cultivated with the medium of Group I) was served as a basis to calculate the relative glucose uptake capabilities of other groups. C2C12 cells provided by [Preparation Examples] were divided into 8 groups and were respectively cultivated with the following mediums for 2 hours: • 1. Group i: a BSA-DMEM medium containing 500 μg/ml glucose. • 2. […] Then, the content of glucose in the medium of each group was determined by a glucose oxidase assay to measure the level of glucose consumption of each group (representing the glucose uptake capability of cells). […]

[1] = system: mouse adipocytes (3T3-L1); test: Glucose oxidase assay of glucose uptake capability of adipocytes; format: cell-based; conditions: 2 hours; for relative glucose uptake capability of cells (glucose consumption) compared to the control group: 3T3-L1 cells, 0.1, 1 or 10 μg/ml, BSA-DMEM medium containing 500 μg/ml glucose
Experimental: The differentiated mouse myocytes (C2C12, purchased from ATCC) and adipocytes (3T3-L1, purchased from ATCC) were cultivated in a Dulbecco's modified Eagle's medium (DMEM) containing 2% bovine serum albumin (BSA) but serum free for 16 hours respectively. Then, the cells were washed with Dulbecco's phosphate-buffered saline (D-PBS), and medium was replaced with a 0.2% BSA-DMEM medium containing 500 μg/ml glucose. The cells thus provided were used in the following experiments. 3T3-L1 cells provided by [Preparation Examples] were divided into 5 groups and were respectively cultivated with the mediums of Groups I to V described in Example 1 (1-1) for 2 hours. Then, the content of glucose in the medium of each group were determined by a glucose oxidase assay to measure the level of glucose consumption of each group (representing the glucose uptake capability of cells). Finally, the results of the control group (i.e., cells being cultivated with the medium of Group I) was served as a basis to calculate the relative glucose uptake capabilities of other groups. 3T3-L1 cells provided by [Preparation Examples] were divided into 8 groups and were respectively cultivated with the mediums of Groups i to v as described in Example 2 (2-1) for 2 hours. Then, the content of glucose in the medium of each group was determined by a glucose oxidase assay to measure the level of glucose consumption of each group (representing the glucose uptake capability of cells). Finally, the results of the control group (i.e., cells being cultivated with the medium of Group i) was served as a basis to calculate the relative glucose uptake capabilities of other groups. FIG. 4A comprises the results of the control group, the positive control group (i.e., cells being cultivated with the medium of Group ii), and the groups being treated with poricoic acid A (i.e., cells being cultivated with the medium of Group iii, iv or v which contains poricoic acid A). FIG. 4B comprises the results of the control group, the positive control group, and the group being treated with poricoic acid B (i.e., cells being cultivated with the medium of Group iii, iv or v which contains poricoic acid B).

| increment in glucose uptake capability compared to the control group, medium dosage group ([1]; 3T3-L1 cells, 1 μg/ml) | increment in glucose uptake capability compared to the control group, high dosage group ([1]; 3T3-L1 cells, 10 μg/ml) | Compound | relative glucose uptake capability of cells (glucose consumption) compared to the control group (mouse myocytes (C2C12)) | glucose uptake capability compared to the positive control group (mouse myocytes (C2C12); positive control 100 nM insulin) | relative glucose uptake capability of cells (glucose consumption) compared to the control group [1] |
| --- | --- | --- | --- | --- | --- |
| significant | significant | C=C(CC[C@@H](C(=O)O)[C@H]1[C@H](O)C[C@@]2(C)C3=CC[C@@H](C(=C)C)[C@](C)(CCC(=O)O)C3=CC[C@]12C)C(C)C [poricoic acid A, Poricoic acid A] | significantly increased | equivalent to that of the positive control group | exhibited an increment in the glucose uptake capabilities |
|  |  | C=C(C)[C@@H]1CC=C2C(=CC[C@]3(C)[C@@H]([C@@H](CCC=C(C)C)C(=O)O)[C@H](O)C[C@@]23C)[C@@]1(C)CCC(=O)O [poricoic acid B, Poricoic acid B] | significantly increased |  | significantly increased |
